Laboratory results reported in ChEMBL document CHEMBL2203242, “A regio- and stereoselective 1,3-dipolar cycloaddition for the synthesis of new-fangled dispiropyrrolothiazoles as antimycobacterial agents” (Bioorg Med Chem Lett, 2012).
In brackets after ≈: the same amount, converted by molar mass.

Columns and labels:
[1] = system: Mycobacterium tuberculosis; test: Antimycobacterial activity against Mycobacterium tuberculosis H37Rv by agar dilution method; format: functional
Vero = test: Cytotoxicity against african green monkey Vero cells after 72 hrs by MTT assay; format: cell-based; conditions: Chlorocebus sabaeus

COc1cc2c(cc1OC)C(=O)[C@]1(C2)[C@@H](c2ccccc2Cl)[C@@H]2CSCN2[C@@]12C(=O)N(N1CCOCC1)c1ccccc12
MIC90 [1]: 6.29 µM (≈ 3.89 µg/mL) | IC50 (Vero): > 62.5 µg/mL

COc1ccc([C@H]2[C@@H]3CSCN3[C@@]3(C(=O)Nc4ccc(OC(F)(F)F)cc43)[C@@]23Cc2cc(OC)c(OC)cc2C3=O)cc1OC
MIC90 [1]: 12.2 µM (≈ 7.85 µg/mL) | IC50 (Vero): > 62.5 µg/mL

COc1cc2c(cc1OC)C(=O)[C@]1(C2)[C@@H](c2ccc(F)cc2)[C@@H]2CSCN2[C@@]12C(=O)N(N1CCOCC1)c1ccccc12
MIC90 [1]: 8.12 µM (≈ 4.89 µg/mL) | IC50 (Vero): > 62.5 µg/mL

COc1cc2c(cc1OC)C(=O)[C@]1(C2)[C@@H](c2ccc(F)cc2)[C@@H]2CSCN2[C@@]12C(=O)Nc1ccc(OC(F)(F)F)cc12
MIC90 [1]: 0.72 µM (≈ 0.432 µg/mL) | IC50 (Vero): > 62.5 µg/mL

COc1cc2c(cc1OC)C(=O)[C@]1(C2)[C@@H](c2ccccc2)[C@@H]2CSCN2[C@@]12C(=O)Nc1ccc(OC(F)(F)F)cc12
MIC90 [1]: > 6.25 µM | IC50 (Vero): > 62.5 µg/mL

NNC(=O)c1ccncc1 [ISONIAZID]
MIC90 [1]: 0.73 µM (≈ 0.1 µg/mL) | IC50 (Vero): > 62.5 µg/mL

COc1ccc([C@H]2[C@@H]3CSCN3[C@@]3(C(=O)N(N4CCOCC4)c4ccccc43)[C@@]23Cc2cc(OC)c(OC)cc2C3=O)cc1OC
MIC90 [1]: 21.2 µM (≈ 13.6 µg/mL) | IC50 (Vero): > 62.5 µg/mL

COc1cc2c(cc1OC)C(=O)[C@]1(C2)[C@@H](c2ccccc2)[C@@H]2CSCN2[C@@]12C(=O)N(N1CCOCC1)c1ccccc12
MIC90 [1]: > 6.25 µM | IC50 (Vero): > 62.5 µg/mL

COc1cc2c(cc1OC)C(=O)[C@]1(C2)[C@@H](c2ccccc2Cl)[C@@H]2CSCN2[C@@]12C(=O)Nc1ccc(OC(F)(F)F)cc12
MIC90 [1]: 11.4 µM (≈ 7.04 µg/mL) | IC50 (Vero): > 62.5 µg/mL
